In brackets after ≈: the same amount, converted by molar mass.
tested on: Culex pipiens; assay: Antilarvicidal activity against Culex pipiens larvae after 24 hrs; type: functional; details: not given

SMILES	LD50 [×10⁻⁵ M]
COc1cc(CC[C@@H](C)Cc2ccc(O)c(OC)c2)ccc1O	9.9
COc1cc(CC[C@H](C)Cc2ccc(O)c(OC)c2)ccc1O	9.67
COc1cc(/C=C/[C@@H](C)Cc2ccc(O)c(OC)c2)ccc1O	48
COc1cc(/C=C/[C@H](C)Cc2ccc(O)c(OC)c2)ccc1O	11
COc1cc(C[C@H](C)[C@@H](C)Cc2ccc(O)c(OC)c2)ccc1O	4.03
COc1cc(C[C@@H](C)[C@H](C)Cc2ccc(O)c(OC)c2)ccc1O [(-)-DIHYDROGUAIARETICACID]	3.52
COc1cc(C[C@@H](C)[C@@H](C)Cc2ccc(O)c(OC)c2)ccc1O [MESODIHYDROGUAIARETIC ACID]	5.12

tested on: Alternaria alternata; assay: Antifungal activity against Alternaria alternata assessed as mycelial colony growth at 0.25 mM after 3 days by caliper analysis; type: functional; details: not given

SMILES	Activity [%]
COc1cc(CC[C@@H](C)Cc2ccc(O)c(OC)c2)ccc1O	32.3
COc1cc(CC[C@H](C)Cc2ccc(O)c(OC)c2)ccc1O	44.4
COc1cc(/C=C/[C@@H](C)Cc2ccc(O)c(OC)c2)ccc1O	43.3
COc1cc(/C=C/[C@H](C)Cc2ccc(O)c(OC)c2)ccc1O	66
COc1cc(C[C@H](C)[C@@H](C)Cc2ccc(O)c(OC)c2)ccc1O	38
COc1cc(C[C@@H](C)[C@H](C)Cc2ccc(O)c(OC)c2)ccc1O [(-)-DIHYDROGUAIARETICACID]	32
COc1cc(C[C@@H](C)[C@@H](C)Cc2ccc(O)c(OC)c2)ccc1O [MESODIHYDROGUAIARETIC ACID]	30

tested on: Fusarium solani; assay: Antifungal activity against Fusarium solani assessed as mycelial colony growth levels at 0.25 mM after 3 days by caliper analysis; type: functional; details: not given

SMILES	Activity [%]
COc1cc(CC[C@@H](C)Cc2ccc(O)c(OC)c2)ccc1O	70.1
COc1cc(CC[C@H](C)Cc2ccc(O)c(OC)c2)ccc1O	95.4
COc1cc(/C=C/[C@@H](C)Cc2ccc(O)c(OC)c2)ccc1O	96.1
COc1cc(/C=C/[C@H](C)Cc2ccc(O)c(OC)c2)ccc1O	95.7
COc1cc(C[C@H](C)[C@@H](C)Cc2ccc(O)c(OC)c2)ccc1O	34.5
COc1cc(C[C@@H](C)[C@H](C)Cc2ccc(O)c(OC)c2)ccc1O [(-)-DIHYDROGUAIARETICACID]	36.5
COc1cc(C[C@@H](C)[C@@H](C)Cc2ccc(O)c(OC)c2)ccc1O [MESODIHYDROGUAIARETIC ACID]	45.8

tested on: not listed separately; assay: Antifungal activity against Bipolaris oryzae assessed as mycelial colony growth levels at 0.25 mM after 3 days by caliper analysis; type: functional; details: not given

SMILES	Activity [%]
COc1cc(CC[C@@H](C)Cc2ccc(O)c(OC)c2)ccc1O	47.2
COc1cc(CC[C@H](C)Cc2ccc(O)c(OC)c2)ccc1O	46.4
COc1cc(/C=C/[C@@H](C)Cc2ccc(O)c(OC)c2)ccc1O	57.6
COc1cc(/C=C/[C@H](C)Cc2ccc(O)c(OC)c2)ccc1O	66.4
COc1cc(C[C@H](C)[C@@H](C)Cc2ccc(O)c(OC)c2)ccc1O	49.9
COc1cc(C[C@@H](C)[C@H](C)Cc2ccc(O)c(OC)c2)ccc1O [(-)-DIHYDROGUAIARETICACID]	49.9
COc1cc(C[C@@H](C)[C@@H](C)Cc2ccc(O)c(OC)c2)ccc1O [MESODIHYDROGUAIARETIC ACID]	53.7

tested on: Colletotrichum lagenaria; assay: Antifungal activity against Colletotrichum lagenarium assessed as mycelial colony growth levels at 0.25 mM after 5 days by caliper analysis; type: functional; details: not given

SMILES	Activity [%]
COc1cc(CC[C@@H](C)Cc2ccc(O)c(OC)c2)ccc1O	39.4
COc1cc(CC[C@H](C)Cc2ccc(O)c(OC)c2)ccc1O	43.1
COc1cc(/C=C/[C@@H](C)Cc2ccc(O)c(OC)c2)ccc1O	67.8
COc1cc(/C=C/[C@H](C)Cc2ccc(O)c(OC)c2)ccc1O	49.4
COc1cc(C[C@H](C)[C@@H](C)Cc2ccc(O)c(OC)c2)ccc1O	20.1
COc1cc(C[C@@H](C)[C@H](C)Cc2ccc(O)c(OC)c2)ccc1O [(-)-DIHYDROGUAIARETICACID]	33.8
COc1cc(C[C@@H](C)[C@@H](C)Cc2ccc(O)c(OC)c2)ccc1O [MESODIHYDROGUAIARETIC ACID]	26

tested on: Bacillus subtilis; assay: Antibacterial activity against Bacillus subtilis subsp. subtilis NBRC 13719 after 24 hrs by 2 fold dilution method; type: functional; details: NBRC 13719, 24 h

SMILES	MIC [µM]
COc1cc(CC[C@@H](C)Cc2ccc(O)c(OC)c2)ccc1O	3130 (≈ 990 µg/mL)
COc1cc(CC[C@H](C)Cc2ccc(O)c(OC)c2)ccc1O	3130 (≈ 990 µg/mL)
COc1cc(/C=C/[C@@H](C)Cc2ccc(O)c(OC)c2)ccc1O	6250 (≈ 1960 µg/mL)
COc1cc(/C=C/[C@H](C)Cc2ccc(O)c(OC)c2)ccc1O	6250 (≈ 1960 µg/mL)
COc1cc(C[C@H](C)[C@@H](C)Cc2ccc(O)c(OC)c2)ccc1O	1560 (≈ 515 µg/mL)
COc1cc(C[C@@H](C)[C@H](C)Cc2ccc(O)c(OC)c2)ccc1O [(-)-DIHYDROGUAIARETICACID]	1560 (≈ 515 µg/mL)
COc1cc(C[C@@H](C)[C@@H](C)Cc2ccc(O)c(OC)c2)ccc1O [MESODIHYDROGUAIARETIC ACID]	1560 (≈ 515 µg/mL)

tested on: Jonesia denitrificans; assay: Antibacterial activity against Listeria denitrificans JCM 11481 after 24 hrs by 2 fold dilution method; type: functional; details: JCM 11481, 24 h

SMILES	MIC [µM]
COc1cc(CC[C@@H](C)Cc2ccc(O)c(OC)c2)ccc1O	1560 (≈ 494 µg/mL)
COc1cc(CC[C@H](C)Cc2ccc(O)c(OC)c2)ccc1O	1560 (≈ 494 µg/mL)
COc1cc(/C=C/[C@@H](C)Cc2ccc(O)c(OC)c2)ccc1O	3130 (≈ 984 µg/mL)
COc1cc(/C=C/[C@H](C)Cc2ccc(O)c(OC)c2)ccc1O	3130 (≈ 984 µg/mL)
COc1cc(C[C@H](C)[C@@H](C)Cc2ccc(O)c(OC)c2)ccc1O	390 (≈ 129 µg/mL)
COc1cc(C[C@@H](C)[C@H](C)Cc2ccc(O)c(OC)c2)ccc1O [(-)-DIHYDROGUAIARETICACID]	390 (≈ 129 µg/mL)
COc1cc(C[C@@H](C)[C@@H](C)Cc2ccc(O)c(OC)c2)ccc1O [MESODIHYDROGUAIARETIC ACID]	1560 (≈ 515 µg/mL)

tested on: Salmonella enterica; assay: Antibacterial activity against Salmonella choleraesuis subsp. choleraesuis JCM 6977 after 24 hrs by 2 fold dilution method; type: functional; details: JCM 6977, 24 h

SMILES	MIC [µM]
COc1cc(CC[C@@H](C)Cc2ccc(O)c(OC)c2)ccc1O	6250 (≈ 1980 µg/mL)
COc1cc(C[C@H](C)[C@@H](C)Cc2ccc(O)c(OC)c2)ccc1O	3130 (≈ 1030 µg/mL)

tested on: HeLa; assay: Cytotoxicity against human HeLa cells assessed as reduction in cell viability after 48 hrs by WST-8 reduction assay; type: functional, cell-based; details: not given

SMILES	IC50 [µM]
COc1cc(CC[C@@H](C)Cc2ccc(O)c(OC)c2)ccc1O	21
COc1cc(CC[C@H](C)Cc2ccc(O)c(OC)c2)ccc1O	6.1
COc1cc(/C=C/[C@@H](C)Cc2ccc(O)c(OC)c2)ccc1O	19
COc1cc(/C=C/[C@H](C)Cc2ccc(O)c(OC)c2)ccc1O	18
COc1cc(C[C@H](C)[C@@H](C)Cc2ccc(O)c(OC)c2)ccc1O	24
COc1cc(C[C@@H](C)[C@H](C)Cc2ccc(O)c(OC)c2)ccc1O [(-)-DIHYDROGUAIARETICACID]	26
COc1cc(C[C@@H](C)[C@@H](C)Cc2ccc(O)c(OC)c2)ccc1O [MESODIHYDROGUAIARETIC ACID]	28

tested on: not listed separately; assay: Cytotoxicity against human HL60 cells assessed as reduction in cell viability after 48 hrs by WST-8 reduction assay; type: functional, cell-based; details: HL-60, 48 h

SMILES	IC50 [µM]
COc1cc(CC[C@@H](C)Cc2ccc(O)c(OC)c2)ccc1O	12
COc1cc(CC[C@H](C)Cc2ccc(O)c(OC)c2)ccc1O	5.6
COc1cc(/C=C/[C@@H](C)Cc2ccc(O)c(OC)c2)ccc1O	21
COc1cc(/C=C/[C@H](C)Cc2ccc(O)c(OC)c2)ccc1O	14
COc1cc(C[C@H](C)[C@@H](C)Cc2ccc(O)c(OC)c2)ccc1O	32
COc1cc(C[C@@H](C)[C@H](C)Cc2ccc(O)c(OC)c2)ccc1O [(-)-DIHYDROGUAIARETICACID]	22
COc1cc(C[C@@H](C)[C@@H](C)Cc2ccc(O)c(OC)c2)ccc1O [MESODIHYDROGUAIARETIC ACID]	41

tested on: Lolium multiflorum; assay: Growth inhibition of Italian ryegrass assessed as reduction in root growth at 1 mM after 5 days; type: functional; details: 120 h, read-out: GI

SMILES	inhibition of growth at 1000 µM [%]
COc1cc(CC[C@@H](C)Cc2ccc(O)c(OC)c2)ccc1O	-7.01
COc1cc(CC[C@H](C)Cc2ccc(O)c(OC)c2)ccc1O	13.3
COc1cc(/C=C/[C@@H](C)Cc2ccc(O)c(OC)c2)ccc1O	14.8
COc1cc(/C=C/[C@H](C)Cc2ccc(O)c(OC)c2)ccc1O	11.5
COc1cc(C[C@H](C)[C@@H](C)Cc2ccc(O)c(OC)c2)ccc1O	51.9
COc1cc(C[C@@H](C)[C@H](C)Cc2ccc(O)c(OC)c2)ccc1O [(-)-DIHYDROGUAIARETICACID]	18.4
COc1cc(C[C@@H](C)[C@@H](C)Cc2ccc(O)c(OC)c2)ccc1O [MESODIHYDROGUAIARETIC ACID]	68.8

tested on: Lolium multiflorum; assay: Growth inhibition of Italian ryegrass assessed as reduction in shoot growth at 1 mM after 5 days; type: functional; details: 120 h, read-out: GI

SMILES	inhibition of growth at 1000 µM [%]
COc1cc(CC[C@@H](C)Cc2ccc(O)c(OC)c2)ccc1O	2.2
COc1cc(CC[C@H](C)Cc2ccc(O)c(OC)c2)ccc1O	19.9
COc1cc(/C=C/[C@@H](C)Cc2ccc(O)c(OC)c2)ccc1O	5.2
COc1cc(/C=C/[C@H](C)Cc2ccc(O)c(OC)c2)ccc1O	14.8
COc1cc(C[C@H](C)[C@@H](C)Cc2ccc(O)c(OC)c2)ccc1O	17.8
COc1cc(C[C@@H](C)[C@H](C)Cc2ccc(O)c(OC)c2)ccc1O [(-)-DIHYDROGUAIARETICACID]	14.9
COc1cc(C[C@@H](C)[C@@H](C)Cc2ccc(O)c(OC)c2)ccc1O [MESODIHYDROGUAIARETIC ACID]	20.9

tested on: not listed separately; assay: Cytotoxicity against fall armyworm Sf9 cells assessed as reduction in cell viability after 48 hrs by WST-8 reduction assay; type: cell-based; details: Spodoptera frugiperda, Sf9, 48 h

SMILES	IC50 [µM]
COc1cc(CC[C@@H](C)Cc2ccc(O)c(OC)c2)ccc1O	25
COc1cc(CC[C@H](C)Cc2ccc(O)c(OC)c2)ccc1O	12
COc1cc(/C=C/[C@@H](C)Cc2ccc(O)c(OC)c2)ccc1O	30
COc1cc(/C=C/[C@H](C)Cc2ccc(O)c(OC)c2)ccc1O	32
COc1cc(C[C@H](C)[C@@H](C)Cc2ccc(O)c(OC)c2)ccc1O	18
COc1cc(C[C@@H](C)[C@H](C)Cc2ccc(O)c(OC)c2)ccc1O [(-)-DIHYDROGUAIARETICACID]	29
COc1cc(C[C@@H](C)[C@@H](C)Cc2ccc(O)c(OC)c2)ccc1O [MESODIHYDROGUAIARETIC ACID]	17

tested on: not listed separately; assay: Selectivity index, ratio of IC50 for fall armyworm sf9 cells to IC50 for Cytotoxicity against human HeLa cells; type: toxicity, cell-based; details: fall armyworm and human, read-out: Ratio IC50

SMILES	selectivity ratio
COc1cc(CC[C@H](C)Cc2ccc(O)c(OC)c2)ccc1O	2
COc1cc(C[C@H](C)[C@@H](C)Cc2ccc(O)c(OC)c2)ccc1O	1.3
COc1cc(C[C@@H](C)[C@@H](C)Cc2ccc(O)c(OC)c2)ccc1O [MESODIHYDROGUAIARETIC ACID]	1.3

tested on: not listed separately; assay: Selectivity index, ratio of IC50 for fall armyworm Sf9 cells to IC50 for Cytotoxicity against human HL60 cells; type: toxicity, cell-based; details: fall armyworm and human, read-out: Ratio IC50

SMILES	selectivity ratio
COc1cc(CC[C@H](C)Cc2ccc(O)c(OC)c2)ccc1O	2
COc1cc(C[C@H](C)[C@@H](C)Cc2ccc(O)c(OC)c2)ccc1O	1.3
COc1cc(C[C@@H](C)[C@@H](C)Cc2ccc(O)c(OC)c2)ccc1O [MESODIHYDROGUAIARETIC ACID]	1.3
